Data from US11708393B2, “Targeted non-invasive imaging probes of EGFR expressing cells” (priority 2011, dated 2023).
Entries after “also recorded” stand apart in the source; their conditions may differ. Cy5.5 = cyanine fluorochrome label, coupled as NHS ester; AEEA = NCCOCCOCC(=O)O

Experiments:
EGFR = biological target: T1, EGFR (Homo sapiens, UniProt P00533); assay: Saturation binding assay of Cy5.5-labeled peptides on Gli36Δ5 cells; details: for Kd: 37° C., 90 minutes, read-out: apparent binding affinity Kd from saturation binding assay
T1 construct: endogenous in cells; host or cells: Gli36Δ5 human glioblastoma cells
Procedure: To determine binding affinities of the Cy5.5-labeled peptides 1 to 4 to EGFR, a saturation binding assay protocol using labeled fluorescence ligand against cell surface receptors was adapted as previously reported. Briefly, Gli36Δ5 cells were plated 20,000 cells per well were plated on black Costar 96-well plates (cat. no. 3603). Probes were diluted to range of concentration ([…]) in growing media with 0.3% bovine serum albumin (BSA) and added into wells and incubated at 37° C. for 90 minutes at 5% CO2. Cells were then washed with PBS twice and dried. DMSO was added before reading fluorescence (excitation 670 nm, emission 700 nm) with a Tecan Infinite M200 plate reader. Saturation binding assay data were in quadruplicates and analyzed using one site binding classical equation for nonlinear regression analysis with the GraphPad Prism version 4.0.
Binding affinity was determined with nonlinear regression analysis with one site binding hyperbola with an equation: […], where Bmax is the maximal binding site and the Kd is the concentration required to reach half-maximal binding. ANOVA analysis at 95% confidence interval (CI) was used to compare treatments (*, […]; confidence interval, ***, […]). To compare live animal FMT, nonparametric one-way ANOVA analyses (Kruskal-Wallis tests) and the median differences were considered significant with P=0.0220.

Gli36Δ5 cells = assay: Receptor uptake, cell-associated fluorescence in Gli36Δ5 cells; format: cell-based, human; details: 1 μmol/L compound
Procedure: FIG. 2 illustrates a plot showing cell associated fluorescence measured using spectrofluorometry at the indicated times for Gli36Δ5 cells incubated with 1 μmol/L of compounds 1 to 4 [Cy5.5-(AEEA)n-EGFpep].
FIGS. 3(A-B) illustrate images showing Gli36Δ5 (A) and U87-MG (B) cells incubated with 1 μmol/L compounds for the indicated times. Uptake of the compounds was assessed using epifluorescence microscopy. Images were taken at ×40 magnification. Scale bar, 50 μm.
Gli36Δ5 or U87-MG cell lines plated in 96-well culture plates (20,000 cells per well; 3 wells per condition) were incubated over indicated time periods with […] of Cy5.5-labeled EGF peptides 2, 3, and 4 at 37° C. and 5% CO2. Cells were briefly rinsed with HEPES buffer and imaged with a Tecan Infinite M200 fluorescence plate reader (excitation 670 nm, emission 700 nm).

[1] = system: Gli36Δ5 orthotopic brain tumors overexpressing EGFR; assay: Ex vivo fluorescence imaging of brains with orthotopic Gli36Δ5 tumors; format: in vivo, mice; details: for accumulation in tumor, % of injected dose: 1 nmol/g tail vein, 1 hour, brains imaged ex vivo; for tumor targeting (in words): 1 nmol/g, ex vivo analysis of brain tissues
Procedure: NIH athymic nude female mice (5-8 weeks and 20-25 g upon arrival, NCI-NIH) were maintained at the Animal Resource Center at Case Western Reserve University (Cleveland, Ohio) according to institutional policies. Cell for brain implantation were harvested with 1 mL 0.05% trypsin-EDTA (Gibco) and briefly washed with PBS. Trypsin was inactivated by the addition of serum-containing media. The resulting cell suspension was centrifuged at […] for 3 minutes. The cell suspension was centrifuged and the supernatant was removed after 2 washes in PBS. Finally, the cells were resuspended in […] PBS for brain implants per animal (250,000 cells per animal for brain implants). Immediately following the cell harvesting procedure, animals were inoculated. For brain tumor implantation, mice were anesthetized by intraperitoneal (i.p.) injection of 50 mg/kg ketamine/xylazine and fitted into a stereotaxic rodent frame (David Kopf Instruments). A small incision was made just lateral to midline to expose bregma suture. A small (1.0 mm) burr hole was drilled at anterior (AP)=+1, lateral (ML)=−2.5 from the bregma. Glioblastoma cells were slowly deposited at a rate of 1 μL/min in the right striatum at a depth of 3 mm from dura with a 10-μL syringe (23-G needle). The needle was slowly withdrawn and the incision was closed with 2 to 3 sutures. Brain tumors grew for 10 to 12 days as per IACUC protocols at which point in vivo imaging studies were conducted. As control for the effects of surgical intervention, animals were also subjected to the implantation procedure but Optical Imaging of Tumors with EGFR Overexpression received 2 μL PBS (sham animals). Animals were fed exclusively on a special rodent diet (Harlan Laboratories, Inc.; Tekland 2018S) to reduce autofluorescence.
Mice bearing brain tumors derived from Gli36Δ5 or U87-MG cells were administered with compounds at 1 nmol/g via tail vein injection. In vivo competition assays were done with mixture of compound 2 and 10-fold concentration of nonlabeled probe 5. Before injection, mice were anesthetized with isoflurane and subjected to tomographic and spectral fluorescence imaging. One hour after injection, animals were re-imaged. Brains were then extracted and imaged. The excised brains were embedded in Tissue-Tek optimum cutting temperature for cryosections for immunohistochemistry (IHC). Fluorescence-mediated molecular tomography (FMT) images were obtained using FMT2500 (Perkin-Elmer), and 3-dimensional reconstructions of fluorescent signals were acquired using the accompanying software TrueQuant. Quantitative fluorescent signals for Cy5.5 of compound 2 were calibrated as per manufacturer's instructions using the 680-channel. Region of interest (ROI) assigned on the basis of the precise placement of cells during implantation at 3 to 4 mm into the brain. ROI was corroborated with fluorescent signals from ex vivo imaging. Fluorescent multispectral images were obtained using the Maestro In-Vivo Imaging System (CRi, Inc.). […] Fluorescence images were acquired before treatment, immediately after and 1.5 hours after treatment. To compare signal intensities, ROIs were selected over the tumor or nontumor areas, and the change in fluorescence signal over baseline was determined. […] The total signal in the ROI defined in photons measured at the surface of the animal was divided by the area (in pixels). Spectral libraries were generated by assigning spectral peaks to background and fluorescence probe on tissue. […]

[2] = system: Gli36Δ5 orthotopic brain tumors; assay: In vivo FMT imaging of orthotopic Gli36Δ5 brain tumors; set-up: species or system mice
Procedure: (§1) NIH athymic nude female mice (5-8 weeks and 20-25 g upon arrival, NCI-NIH) were maintained at the Animal Resource Center at Case Western Reserve University (Cleveland, Ohio) according to institutional policies. Cell for brain implantation were harvested with 1 mL 0.05% trypsin-EDTA (Gibco) and briefly washed with PBS. Trypsin was inactivated by the addition of serum-containing media. The resulting cell suspension was centrifuged at […] for 3 minutes. The cell suspension was centrifuged and the supernatant was removed after 2 washes in PBS. Finally, the cells were resuspended in […] PBS for brain implants per animal (250,000 cells per animal for brain implants). […]
(§2) Mice bearing brain tumors derived from Gli36Δ5 or U87-MG cells were administered with compounds at 1 nmol/g via tail vein injection. […] Before injection, mice were anesthetized with isoflurane and subjected to tomographic and spectral fluorescence imaging. […] Fluorescence-mediated molecular tomography (FMT) images were obtained using FMT2500 (Perkin-Elmer), and 3-dimensional reconstructions of fluorescent signals were acquired using the accompanying software TrueQuant. Quantitative fluorescent signals for Cy5.5 of compound 2 were calibrated as per manufacturer's instructions using the 680-channel. […] Fluorescence images were acquired before treatment, immediately after and 1.5 hours after treatment. […]

[3] = system: A431 cells (high wild-type EGFR); assay: Saturation binding and fluorescence uptake in A431 cells; format: cell-based, human; details: A431 cells incubated with compound plus EGF ligand
Description: We also examined the expression of EGFRvIII in the cell lines. […] In addition, we examined A431 cells, a squamous carcinoma cell line, that expresses high levels of wild-type EGFR.

[4] = In vivo FMT imaging of sham surgery animals; set-up: species or system mice
Procedure: as §1, §2

[5] = system: U87-MG orthotopic brain tumors; assay: In vivo FMT imaging of orthotopic U87-MG brain tumors; set-up: species or system mice
Procedure: as §1, §2

[6] = biological target: human epidermal growth factor receptor (EGFR) (human) (UniProt P00533); assay: cell-based or functional assay

Row | Molecule | binding affinity to the cells (in words) (EGFR) | Kd (EGFR) [µM] | cellular uptake / accumulation of fluorescence (in words) (Gli36Δ5 cells) | accumulation in tumor, % of injected dose [1] | tumor targeting (in words) [1] | further results
1 | Cy5.5-YHWYGYTPQNVI-amide [Compound 1] | micromolar range | 18.5 | Neither compound 1 (no linker) nor either of the molecules with greater linker numbers (compounds 3 and 4) was taken up by the cells to the same extent as compound 2 | – | – | –
2 | Cy5.5-(AEEA)1-NYQTPVYGWIYH-amide ({Cy5.5-AEEA}-NYQTPVYGWIYH-NH2) [Compound 6, Cy5.5-labeled scrambled peptide, specificity control, reference compound] | – | – | – | 0.006 % of injected dose | did not target the tumor | –
3 | Cy5.5-(AEEA)3-YHWYGYTPQNVI-amide [Compound 4] | micromolar range | 123 | Neither compound 1 (no linker) nor either of the molecules with greater linker numbers (compounds 3 and 4) was taken up by the cells to the same extent as compound 2; also recorded: taken up by cells better than compound 3 | – | – | –
4 | Cy5.5-(AEEA)2-YHWYGYTPQNVI-amide [Compound 3] | micromolar range | 64.4 | Neither compound 1 (no linker) nor either of the molecules with greater linker numbers (compounds 3 and 4) was taken up by the cells to the same extent as compound 2 | – | – | –
5 | Cy5.5-(AEEA)1-YHWYGYTPQNVI-amide [Compound 2] | micromolar range | 8.9 | greatest accumulation of fluorescence | 1.1 % of injected dose | targeted the tumor efficiently | fluorescence signal as injected dose ([2]; Gli36Δ5 brain tumors, 1 nmol/g, 1 hour, FMT): 1.1%; amount of fluorescence in matching ROI (FMT 3-dimensional reconstruction) ([2]; Gli36Δ5 tumor): 9,271 nmol/L; tumor targeting (in words) ([1]; listed as compound 2): targets the tumor significantly (***, P>0.0001) more efficiently than the scrambled peptide 6; cell fluorescence in the presence of EGF ligand (in words) [3]: increasing fluorescence in the presence of the EGF ligand; amount of fluorescence in matching ROI (FMT 3-dimensional reconstruction) [4]: 272 nmol/L; fluorescence signal as injected dose ([5]; U87-MG brain tumors, 1 nmol/g, 1 hour, FMT): 0.27%; amount of fluorescence in matching ROI (FMT 3-dimensional reconstruction) ([5]; U87-MG tumor): 1,608 nmol/L
6 | NYQTPVYGWIYH (Cy5.5-(AEEA)1 at the N-terminus; C-terminal amide) [Compound 6: Cy5.5-(AEEA)1-…-amide scrambled] | – | – | – | – | – | percent of injected dose delivered to Gli36Δ5 brain tumor (% of injected dose) [6]: 0.006
